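Values below derive from 48-hour exposures of cells grown in 96-well plates, with endpoints linearly interpolated between the two concentrations bracketing the appropriate inhibition level. At the GI50, growth is halved. Definition used: TGI = concentration required for complete inhibition of growth.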
Columns and labels:
Assay in all cases: growth of human tumour cells (NCI), 48 h
[1] = system: HCT-116 colon
[2] = system: K-562 leukemia
[3] = system: MCF7 breast
[4] = system: NCI-H522 lung
[5] = system: OVCAR-3 ovarian
[6] = system: RXF 393 renal
[7] = system: SK-OV-3 ovarian
[8] = system: SN12C renal
[9] = system: U251 CNS
[10] = system: UACC-62 melanoma

Row | SMILES | GI50 [1] [µM] | TGI [1] [µM] | GI50 [2] [µM] | TGI [2] [µM] | GI50 [3] [µM] | TGI [3] [µM] | GI50 [4] [µM] | TGI [4] [µM] | GI50 [5] [µM] | TGI [5] [µM] | GI50 [6] [µM] | TGI [6] [µM] | GI50 [7] [µM] | TGI [7] [µM] | GI50 [8] [µM] | TGI [8] [µM] | GI50 [9] [µM] | TGI [9] [µM] | GI50 [10] [µM] | TGI [10] [µM]
1 | OCc1ccc(N(CCN2CCCC2)Cc2ccc(F)cc2)cc1Cl | 13.4 | 37.3 | 16.2 | 40.4 | 13.7 | 32.1 | 16.8 | 34.4 | 19.5 | 36.6 | 23.3 | 67.1 | 7.88 | 31 | 34.8 | > 100 | 15.5 | 32.4 | 13.9 | 29.1
2 | COc1ccc(/C=C/NC=O)cc1 | – | > 100 | – | > 100 | – | > 100 | – | > 100 | – | > 100 | – | > 100 | – | > 100 | – | > 100 | – | > 100 | – | > 100
3 | COc1ccc(N(C)c2c3ccccc3nc3[nH]c4ccccc4c23)cc1 | 0.279 | 1.01 | 0.558 | 16.3 | 0.168 | 0.655 | 4.98 | 9.55 | 0.261 | 1.16 | 5.4 | 22.3 | 0.778 | 4.52 | 0.392 | 1.53 | 0.525 | 2.39 | 0.875 | 2.64
4 | NC1CCC(N[C@@H]2C[C@H]2c2ccccc2)CC1 (stereo partly drawn) | > 100 | > 100 | 29.9 | > 100 | > 100 | > 100 | > 100 | > 100 | > 100 | > 100 | 59.2 | > 100 | > 100 | > 100 | > 100 | > 100 | > 100 | > 100 | 33.6 | > 100
5 | O=[N+]([O-])c1ccc2nc3ccccc3cc2c1 | – | 10.5 | – | 8.79 | – | > 100 | – | 9.79 | – | 1.3 | – | > 100 | – | 20.7 | – | 5.63 | – | 10.6 | – | 6.27
6 | NS(=O)(=O)c1ccc(NC(=O)c2cccc3cc4ccccc4nc23)cc1 | – | > 100 | – | > 100 | – | > 100 | – | > 100 | – | > 100 | – | > 100 | – | > 100 | – | > 100 | – | > 100 | – | > 100
7 | COc1cc(/C=C2\C(=O)Nc3cccc(Cl)c32)cc(OC)c1OC | > 100 | > 100 | 29.2 | > 100 | > 100 | > 100 | > 100 | > 100 | > 100 | > 100 | 8.79 | 36.9 | > 100 | > 100 | > 100 | > 100 | 41 | > 100 | > 100 | > 100
8 | COc1ccc(-c2csc(NC(=O)c3cc(O)c(O)c(O)c3)n2)cc1 | 6.69 | > 33.3 | 4.5 | > 33.3 | 10.7 | > 33.3 | 1.32 | 6.89 | 12.2 | > 33.3 | 7.31 | > 33.3 | 17.2 | > 33.3 | 7.42 | > 33.3 | 4.09 | > 33.3 | 5.87 | > 33.3
9 | CCCN(CCSSCCNc1nc(N(C)O)nc(N(C)O)n1)c1nc(N(C)O)nc(N(C)O)n1 | 3.97 | > 100 | 15.7 | > 100 | 4.68 | > 100 | 92.1 | > 100 | 6.42 | > 100 | 81 | > 100 | 3.16 | > 100 | 9.84 | > 100 | 5.35 | > 100 | 4.39 | 28.9
10 | Cn1c(=O)c(Oc2ccccc2)cc2cnc(NC3CCOCC3)nc21 | > 25 | > 25 | > 25 | > 25 | > 25 | > 25 | > 25 | > 25 | > 25 | > 25 | > 25 | > 25 | > 25 | > 25 | > 25 | > 25 | > 25 | > 25 | > 25 | > 25
11 | CN(C)CCCn1c2nc(=O)[nH]c(=O)c-2nc2cc(Cl)c(Cl)cc21 | 0.418 | 6.71 | 3.43 | 15.3 | 0.398 | 1.64 | 2.1 | 4.23 | 0.812 | 6.13 | 13.2 | 26.3 | 22.3 | 65.6 | 3.09 | 10.1 | 3.08 | 10.5 | 4.22 | 14.9
12 | CNCCCNCCCN1C(=O)c2ccc3c4c(ccc(c24)C1=O)C(=O)N(CCCNCc1ccccc1OC)C3=O | 0.27 | 1.21 | 0.408 | 2.9 | 0.512 | 3.21 | 1.23 | 2.83 | 1.37 | 9.23 | 1.89 | 5.71 | 2.95 | 23.7 | 1.46 | 3.41 | 1.61 | 7.67 | 1.52 | 3.51
13 | C=C1C[C@@]2(C)C(CC[C@]3(C)C2CC=C2C4CC(C)(C)C[C@@H](OC(=O)/C(C)=C\C)[C@]4(C(=O)O)CC[C@]23C)C(C)(C)C1=O (stereo partly drawn) | 1.81 | 3.91 | 2.45 | 11.5 | 4.06 | 19.2 | 2.76 | 10.1 | 2.08 | 5 | 1.76 | 3.57 | 14.3 | 33.4 | 3.22 | 15.2 | 2.46 | 6.83 | 2.93 | 10.3
14 | COc1ccccc1/C=C/C(=O)/C=C/c1ccccc1OC | 1.27 | 2.62 | 2.83 | 12.4 | 0.37 | 3.81 | 1.67 | 3.26 | 1.68 | 3.68 | 1.6 | 3.06 | 2.94 | 8.66 | 2.06 | 5.21 | 1.55 | 3.24 | 1.65 | 3.41
15 | O=C1NN(c2ccccc2)C(=O)/C1=C/c1ccc(Br)o1 | 11.4 | 25.8 | 14.1 | > 77.7 | 3.54 | 18.9 | 7.92 | 36.8 | 1.07 | 13.2 | 1.02 | 2.04 | 26.7 | > 61.4 | 0.951 | 21.3 | 1.57 | 19.8 | 11.8 | 24.3
16 | NC1=Nc2cc(OCCCN3Cc4ccccc4C3)c(OCC3CC3)cc2C12CCCC2 | 1.61 | 3.49 | 0.74 | 4.08 | 1.8 | 4.03 | 2.25 | 4.87 | 2.69 | 8.68 | 1.34 | 3.58 | 4.48 | 17.4 | 3.85 | 15.2 | 1.8 | 3.88 | 1.9 | 3.87
17 | C=CC1=C(C)C2=NC1=CC1=NC(=CC3=C(C)C4=C(O)C(C(=O)OC)C(=C5NC(=C2)C(C)C5CCC(=O)OC)C4=N3)C(CC)=C1C (stereo not drawn) | – | > 100 | – | > 100 | – | > 100 | – | > 100 | – | > 100 | – | > 100 | – | > 100 | – | > 100 | – | > 100 | – | > 100
18 | COc1ccc(-c2cc(=O)c3c(OC)c(OC)c(OC)c(OC)c3o2)c(OC)c1 | – | 49.5 | – | > 100 | – | 44 | – | 29.1 | – | 53.7 | – | 99.7 | – | > 100 | – | 62.6 | – | > 100 | – | 33
19 | O=C1CCS/C(=N\S(=O)(=O)c2ccc(N3N=C4c5ccccc5CC4C3c3cccs3)cc2)N1C(=O)c1ccccc1 (stereo not drawn) | 10 | 21.6 | 26.4 | > 100 | 9.1 | > 100 | 14.4 | 65.1 | 27.4 | 67.1 | 6.31 | 33 | 52.8 | > 100 | 16.7 | 57.1 | 4.5 | 17.4 | 6.37 | 28
20 | Cc1cc(N(CCCl)CCCl)ccc1/C=N/NC(=O)Cc1cc(=O)oc2cc(O)ccc12 | – | 40.5 | – | 66.1 | – | 20.4 | – | 31.5 | – | 72.8 | – | 44.3 | – | – | – | 38.2 | – | 43.4 | – | 13.2
21 | Cc1cc(=O)oc2cc(OS(C)(=O)=O)ccc12 | – | > 100 | – | > 100 | – | > 100 | – | > 100 | – | > 100 | – | > 100 | – | – | – | > 100 | – | > 100 | – | > 100

From PubChem BioAssay (NCI)
